Source: the NIST ThermoML archive (doi:10.1021/je030167i)

Experiment: xn = mol fraction of the nth substance listed
Conditions: 101.3 kPa, Liquid

CC(C)CCl [1-chloro-2-methylpropane] + CC1CCCO1
Conditions	kinematic viscosity, 298.15 K [m2/s]	kinematic viscosity, 313.15 K [m2/s]	mass density, 298.15 K [kg/m3]	mass density, 313.15 K [kg/m3]
x1 = 0.0484	5.56e-07	4.88e-07	850.43	834.97
x1 = 0.0999	5.52e-07	4.85e-07	852.07	836.22
x1 = 0.1962	5.44e-07	4.78e-07	854.44	838.53
x1 = 0.3105	5.35e-07	4.7e-07	857.3	841.23
x1 = 0.4006	5.29e-07	4.65e-07	859.25	843.09
x1 = 0.4775	5.23e-07	4.6e-07	860.99	844.5
x1 = 0.6006	5.15e-07	4.52e-07	863.58	846.94
x1 = 0.7031	5.08e-07	4.46e-07	865.6	848.88
x1 = 0.8026	5.03e-07	4.4e-07	867.49	850.49
x1 = 0.9059	4.97e-07	4.34e-07	869.22	852.11
x1 = 0.9506	4.95e-07	4.32e-07	870.2	852.87
x1 = 1	4.92e-07	4.29e-07	870.93	853.51

CCCCCl [1-chlorobutane] + CC1CCCO1
x1 = 1
Conditions	kinematic viscosity [m2/s]	mass density [kg/m3]
298.15 K	4.78e-07	880.62
313.15 K	4.21e-07	863.86

CC(C)(C)Cl [2-chloro-2-methylpropane] + CC1CCCO1
298.15 K
Conditions	kinematic viscosity [m2/s]	mass density [kg/m3]
x1 = 0.0481	5.59e-07	849.09
x1 = 0.0972	5.57e-07	848.97
x1 = 0.196	5.55e-07	848.4
x1 = 0.2907	5.55e-07	847.61
x1 = 0.3874	5.54e-07	846.54
x1 = 0.4878	5.54e-07	845.21
x1 = 0.5888	5.55e-07	843.72
x1 = 0.7	5.57e-07	842.04
x1 = 0.7912	5.59e-07	840.61
x1 = 0.8945	5.62e-07	838.65
x1 = 0.9474	5.63e-07	837.24
x1 = 1	5.66e-07	835.75

CCC(C)Cl (centres undefined) [2-chlorobutane] + CC1CCCO1
Conditions	kinematic viscosity, 298.15 K [m2/s]	kinematic viscosity, 313.15 K [m2/s]	mass density, 298.15 K [kg/m3]	mass density, 313.15 K [kg/m3]
x1 = 0.035	5.55e-07	4.88e-07	850.14	834.84
x1 = 0.0835	5.49e-07	4.83e-07	851.29	835.54
x1 = 0.1742	5.38e-07	4.74e-07	853.4	837.42
x1 = 0.2553	5.29e-07	4.65e-07	854.9	839.1
x1 = 0.3568	5.17e-07	4.56e-07	857.12	840.87
x1 = 0.4555	5.05e-07	4.46e-07	858.75	842.26
x1 = 0.5396	4.96e-07	4.38e-07	860.37	843.91
x1 = 0.697	4.81e-07	4.24e-07	863.09	846.32
x1 = 0.797	4.71e-07	4.15e-07	864.45	847.77
x1 = 0.8975	4.63e-07	4.06e-07	866.03	848.87
x1 = 0.9487	4.58e-07	4.01e-07	866.65	849.41
x1 = 1	4.54e-07	3.97e-07	867.31	850.23

CC(C)CO [2-methyl-1-propanol] + CC1CCCO1
x1 = 1
Conditions	kinematic viscosity [m2/s]	mass density [kg/m3]
298.15 K	4.25e-06	797.71
313.15 K	2.74e-06	785.89

CC(C)(C)O [2-methylpropan-2-ol] + CC1CCCO1
x1 = 1
Conditions	kinematic viscosity [m2/s]	mass density [kg/m3]
298.15 K	5.59e-06	780.67
313.15 K	2.74e-06	765.33

CC1CCCO1 (centres undefined) [2-methyltetrahydrofuran] + CC(C)(C)Cl
298.15 K, x2 = 0
Conditions	kinematic viscosity [m2/s]	mass density [kg/m3]
–	5.59e-07	849.28
